Reference: US11820773B2, “Tricyclic compounds” (ALIGOS THERAPEUTICS, INC., priority 2020, dated 2023)
Where a name gives a salt, the structure may show the parent alone.

These compounds were tested on HBV (assay: HBV-DNA antiviral assay using HepG2.117 cells (intracellular HBV DNA by qPCR)). Settings: HBV DNA inhibition, 3 days incubation, 2% DMSO.
Format: cell-based, genotype D HBV
Protocol: The following assay procedure describes the HBV antiviral assay, using HepG2.117 cells, which carry a stably integrated genotype D HBV genome under the control of a Tet-off promoter, and intracellular HBV DNA quantification as endpoint. Cell viability is assessed in parallel by measuring the intracellular ATP content using CellTiter-Glo 2.0 (Promega).
On day 0, HepG2.117 cells (which are maintained in routine cell culture with doxycycline present in the medium at a final concentration of 1 μg/mL) were seeded in 96-well plates (white with clear bottom) at a density of 2.0×10^4 cells/well (0.1 mL/well) in medium without doxycycline to induce pgRNA transcription and subsequent formation of HBV particles. The cells were incubated at 37° C. and 5% CO2.
On day 1, medium was removed from each well, the test articles were diluted in culture medium without doxcycyline and 100 μL was added to cell culture wells (9 concentrations, 4-fold dilution). For each plate, 6 untreated (merely DMSO) wells were included. The final concentration of DMSO in the culture medium was 2%. Each plate was prepared in duplicate (one for HBV DNA extraction, one for CellTiter-Glo 2.0 measurement). The cells were incubated at 37° C. and 5% CO2 for 3 days.
On day 4, cell viability was assessed using CellTiter-Glo 2.0 and cell lysates were prepared for HBV DNA extraction and subsequent quantification by qPCR.
HBV DNA Quantification by qPCR
Medium was removed from each well and 100 μL of 0.33% NP-40 in H2O was added to each well. Plates were sealed, incubated at 4° C. for 5 mins, vortexed extensively and centrifuged briefly. Next, 35 μL of lysate was added to 65 μL QuickExtract DNA Extraction Solution (Epicentre) in a PCR plate for each well. PCR plate was incubated at 65° C. for 6 mins, 98° C. for 2 mins and finally cooled to 4° C. HBV DNA was then quantified by qPCR with HBV-specific primers and probes as specified in Table 1 using the Bio-Rad SSOAdvanced Universal Probes Supermix on a CFX96 machine (Bio-Rad). The PCR cycle program consisted of 95° C. for 3 mins, followed by 40 cycles at 95° C. for 10 sec and 60° C. for 30 sec.
A DNA standard was prepared by dilution of an IDT gBlock corresponding to the amplicon with concentrations ranging from 10^2 to 10^8 copies/input (i.e. per 4 μL) and used to generate a standard curve by plotting Cq values vs. HBV DNA standard concentration. The quantity of HBV DNA in each sample was determined by interpolating from the standard curve.
Cell viability was calculated as follows: % Cell viability=(luminescence value of test sample)/(average luminescence value of 2% DMSO control)×100%. HBV DNA inhibition was calculated as follows: 100−(HBV DNA copy number of test sample)/(average HBV DNA copy number of 2% DMSO control)×100%. No normalization to entecavir was required due to the excellent dynamic window of this assay. The CC50, EC50 and EC90 values were determined by dose-response curves fitted by GraphPad Prism using “log (agonist) vs. response—Variable slope”.
In the case of `CNC(=O)c1ccc(-n2c(=O)c3c(n4ncc(CC5CCCC5)c24)CN(C(=O)c2ccc(Br)c(Cl)c2)CC3)cc1` [Compound 11, 4-[12-(4-bromo-3-chloro-benzoyl)-5-(cyclopentylmethyl)-8-oxo-2,3,7,12-tetrazatricyclo[7.4.0.0^2,6]trideca-1(9),3,5-trien-7-yl]-N-methyl-benzamide], the EC50 is reported as under 50 nM. Compound `CNC(=O)c1ccc(-n2c(=O)c3c(n4ncc(CC5CC5)c24)CN(C(=O)c2ccc(Br)c(C(F)(F)F)c2)C(C)C3)cc1` (racemic) [Compound 21a, N-methyl-4-[rac-(11R)-12-[4-bromo-3-(trifluoromethyl)benzoyl]-5-(cyclopropylmethyl)-11-methyl-8-oxo-2,3,7,12-tetrazatricyclo[7.4.0.0^2,6]trideca-1(9),3,5-trien-7-yl]benzamide] has an EC50 of under 50 nM.

Same assay, conditions: Hepatitis B virus, 72 h, HBV DNA inhibition, 3 days incubation, 2% DMSO
In the case of `CNC(=O)c1ccc(-n2c(=O)c3c(n4ncc(Cc5ccsc5)c24)CN(C(=O)c2ccc(Br)c(Cl)c2)CC3)cc1` [Compound 18, 4-[12-(4-bromo-3-chloro-benzoyl)-8-oxo-5-(3-thienylmethyl)-2,3,7,12-tetrazatricyclo[7.4.0.0^2,6]trideca-1(9),3,5-trien-7-yl]-N-methyl-benzamide], the EC50 is reported as under 50 nM. For `Cc1nnc(-c2ccc(-n3c(=O)c4c(n5ncc(CC(C)C)c35)CN(C(=O)c3ccc(Cl)c(C(F)(F)F)c3)[C@H](C)C4)cc2)[nH]1` (stereo in doubt) [Compound 65a, rac-(11R)-12-[4-chloro-3-(trifluoromethyl)benzoyl]-5-isobutyl-11-methyl-7-[4-(5-methyl-4H-1,2,4-triazol-3-yl)phenyl]-2,3,7,12-tetrazatricyclo[7.4.0.0^2,6]trideca-1(9),3,5-trien-8-one], the EC50 was under 50 nM. `C[C@@H]1Cc2c(n3ncc(CC4CC4)c3n(-c3ccc(-c4nc(=O)on4C)cc3)c2=O)CN1C(=O)c1ccc(Br)c(C(F)(F)F)c1` (stereo in doubt) [Compound 93a, 2-methyl-3-[4-[rac-(11R)-12-[4-bromo-3-(trifluoromethyl)benzoyl]-5-(cyclopropylmethyl)-11-methyl-8-oxo-2,3,7,12-tetrazatricyclo[7.4.0.0^2,6]trideca-1(9),3,5-trien-7-yl]phenyl]-1,2,4-oxadiazol-5-one] was tested, and the EC50 was under 50 nM. Work on `CC[C@H]1Cc2c(n3ncc(Cc4ccccc4)c3n(-c3ccc4c(NC)n[nH]c4c3)c2=O)CN1C(=O)c1ccc(Br)c(C(F)(F)F)c1` (stereo in doubt) [Compound 84b, rac-(11S)-5-benzyl-12-[4-bromo-3-(trifluoromethyl)benzoyl]-11-ethyl-7-[3-(methylamino)-1H-indazol-6-yl]-2,3,7,12-tetrazatricyclo[7.4.0.0^2,6]trideca-1(9),3,5-trien-8-one] yielded an EC50 of under 50 nM. `CNC(=O)c1ccc(-n2c(=O)c3c(n4ncc(CC(C)C)c24)CN(C(=O)c2ccc(Cl)c(C(F)(F)F)c2)[C@H](C)C3)cc1` (stereo in doubt) [Compound 54a, N-methyl-4-[rac-(11R)-12-[4-chloro-3-(trifluoromethyl)benzoyl]-5-isobutyl-11-methyl-8-oxo-2,3,7,12-tetrazatricyclo[7,4.0.0^2,6]trideca-1(9),3,5-trien-7-yl]benzamide] showed an EC50 of under 50 nM. `CNc1n[nH]c2cc(-n3c(=O)c4c(n5ncc(CC(C)C)c35)CN(C(=O)c3ccc(Br)c(C(F)(F)F)c3)[C@H](C)C4)ccc12` (stereo in doubt) [Compound 61a, rac-(11R)-12-[4-bromo-3-(trifluoromethyl)benzoyl]-5-isobutyl-11-methyl-7-[3-(methylamino)-1H-indazol-6-yl]-2,3,7,12-tetrazatricyclo[7.4.0.0^2,6]trideca-1(9),3,5-trien-8-one] showed an EC50 of under 50 nM. Compound `CNC(=O)c1ccc(-n2c(=O)c3c(n4ncc(CC5CC(F)(F)C5)c24)CN(C(=O)c2ccc(Br)c(Cl)c2)CC3)cc1` [Compound 19, 4-[12-(4-bromo-3-chloro-benzoyl)-5-[(3,3-difluorocyclobutyl)methyl]-8-oxo-2,3,7,12-tetrazatricyclo[7.4.0.0^2,6]trideca-1(9),3,5-trien-7-yl]-N-methyl-benzamide] has an EC50 of 50 to 500 nM. With `Cc1cnnn1-c1ccc(-n2c(=O)c3c(n4ncc(Cc5ccccc5)c24)CN(C(=O)c2ccc(Br)c(C(F)(F)F)c2)CC3)cc1` [Compound 34, 5-benzyl-12-[4-bromo-3-(trifluoromethyl)benzoyl]-7-[4-(5-methyltriazol-1-yl)phenyl]-2,3,7,12-tetrazatricyclo[7.4.0.0^2,6]trideca-1(9),3,5-trien-8-one] the EC50 was under 50 nM. For `C[C@H]1Cc2c(n3ncc(Cc4ccccc4)c3n(-c3ccc(-c4ncnn4C)cc3)c2=O)CN1C(=O)c1ccc(Br)c(C(F)(F)F)c1` (stereo in doubt) [Compound 49b, rac-(11S)-5-benzyl-12-[4-bromo-3-(trifluoromethyl)benzoyl]-11-methyl-7-[4-(2-methyl-1,2,4-triazol-3-yl)phenyl]-2,3,7,12-tetrazatricyclo[7.4.0.0^2,6]trideca-1(9),3,5-trien-8-one], the EC50 was 50 to 500 nM. For `CC(C)[C@@H](N)C(=O)OCN(C)C(=O)c1ccc(-n2c(=O)c3c(n4ncc(CC5CC5)c24)CN(C(=O)c2ccc(Br)c(C(F)(F)F)c2)[C@H](C)C3)cc1` [Compound 106, [[4-[(11R)-12-[4-bromo-3-(trifluoromethyl)benzoyl]-5-(cyclopropylmethyl)-11-methyl-8-oxo-2,3,7,12-tetrazatricyclo[7.4.0.0^2,6]trideca-1(9),3,5-trien-7-yl]benzoyl]-methyl-amino]methyl (2S)-2-amino-3-methyl-butanoate], the EC50 was under 50 nM. `CNC(=O)c1ccc(-n2c(=O)c3c(n4ncc(Cc5ccccc5)c24)CN(C(=O)c2ccc(Br)c(C(F)(F)F)c2)[C@H](C2CC2)C3)cc1` (stereo in doubt) [Compound 104b, N-methyl-4-[rac-(11S)-5-benzyl-12-[4-bromo-3-(trifluoromethyl)benzoyl]-11-cyclopropyl-8-oxo-2,3,7,12-tetrazatricyclo[7.4.0.0^2,6]trideca-1 (9),3,5-trien-7-yl]benzamide] was tested, and the EC50 was under 50 nM. For `Cc1nn[nH]c1-c1ccc(-n2c(=O)c3c(n4ncc(CC5CC5)c24)CN(C(=O)c2ccc(Br)c(C(F)(F)F)c2)[C@@H](C)C3)cc1` (stereo in doubt) [Compound 75b, rac-(11S)-12-[4-bromo-3-(trifluoromethyl)benzoyl]-5-(cyclopropylmethyl)-11-methyl-7-[4-(4-methyl-1H-triazol-5-yl)phenyl]-2,3,7,12-tetrazatricyclo[7.4.0.0^2,6]trideca-1(9),3,5-trien-8-one], the EC50 was 50 to 500 nM. In the case of `CC(C)[C@H](N)C(=O)OCN(C)C(=O)c1ccc(-n2c(=O)c3c(n4ncc(CC5CC5)c24)CN(C(=O)c2ccc(Br)c(C(F)(F)F)c2)[C@@H](C)C3)cc1` [Compound 90, [[4-[(11S)-12-[4-bromo-3-(trifluoromethyl)benzoyl]-5-(cyclopropylmethyl)-11-methyl-8-oxo-2,3,7,12-tetrazatricyclo[7.4.0.0^2,6]trideca-1(9),3,5-trien-7-yl]benzoyl]-methylamino]methyl (2S)-2-amino-3-methyl-butanoate], the EC50 is reported as over 5000 nM. `CC(C)[C@@H](N)C(=O)OCN(C)C(=O)c1ccc(-n2c(=O)c3c(n4ncc(CC5CC5)c24)CN(C(=O)c2ccc(Br)c(C(F)(F)F)c2)[C@@H](C)C3)cc1` (racemic) [Compound 96, [[4-[(11SR)-12-[4-bromo-3-(trifluoromethyl)benzoyl]-5-(cyclopropylmethyl)-11-methyl-8-oxo-2,3,7,12-tetrazatricyclo[7.4.0.0^2,6]trideca-1(9),3,5-trien-7-yl]benzoyl]-methyl-amino]methyl (2R)-2-amino-3-methyl-butanoate; hydrochloride] showed an EC50 of 500 to 5000 nM. Compound `Cc1nnc(-c2ccc(-n3c(=O)c4c(n5ncc(CC(C)C)c35)CN(C(=O)c3ccc(Br)c(Cl)c3)[C@@H](C)C4)cc2)[nH]1` (stereo in doubt) [Compound 66b, rac-(11S)-12-(4-bromo-3-chloro-benzoyl)-5-isobutyl-11-methyl-7-[4-(5-methyl-4H-1,2,4-triazol-3-yl)phenyl]-2,3,7,12-tetrazatricyclo[7.4.0.0^2,6]trideca-1(9),3,5-trien-8-one] has an EC50 of 50 to 500 nM.
